Measurements published in patent publication US20230406865A1, “CRYSTAL FORM OF FREE BASE OF INHIBITOR CONTAINING BICYCLIC RING DERIVATIVE AND PREPARATION METHOD AND APPLICATION OF CRYSTAL FORM” (SHANGHAI HANSOH BIOMEDICAL CO., LTD., priority 2020, published 2023).
pIC50: −log10 of the molar value.

How the values were obtained:
RET kinase = target: T1, RET kinase (Homo sapiens, UniProt P07949); assay: HTRF kinase activity inhibition, RET wild-type; type: biochemical; conditions: ATP at Km
T1 construct: purchased Carna 08-159
In short: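 HTRF (KinEASE-TK) kinase assay with recombinant RET wild-type, RET V804M, RET V804L and KIF5B-RET enzymes plus ATP.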

KDR kinase = target: T2, KDR kinase (Homo sapiens, UniProt P35968); assay: HTRF kinase activity inhibition, KDR; type: biochemical; conditions: for pIC50: HTRF, ATP at Km; for Ratio (KDR/RET): KDR IC50 / RET IC50
T2 construct: purchased Carna 08-191
In short: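 Inhibition of KDR kinase activity measured by homogeneous time-resolved fluorescence with a tyrosine-kinase KinEASE substrate kit and ATP.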

[1] = Balb/C mouse pharmacokinetics, oral 5 mg/kg; type: in vivo, Balb/C mice; conditions: male, p.o. 5 mg/kg, plasma; for MRT: read-out: Average residence time MRT; for Cmax: read-out: Blood concentration Cmax; for AUC(0-t): read-out: Curve area AUC0-t; for AUC(0-inf): read-out: Curve area AUC0-∞; for half-life: read-out: Half-life t1/2 (converted); for Tmax: read-out: Peak time tmax
In short: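 Male Balb/C mice (6 per compound) were fasted overnight and dosed in 0.5% CMC-Na (1% Tween80) solution or suspension. EDTA-K2 plasma was sampled at 0, 0.5, 1, 2, 4, 6, 8 and 24 h. Compound levels were measured by LC/MS/MS after acetonitrile precipitation, and PK parameters were derived from the plasma profiles.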

[2] = tested on: subcutaneous transplanted tumor of Ba/F3 KIF5B-RET cells; assay: Tumor suppression on Ba/F3 KIF5B-RET transplanted tumor model; type: in vivo, BALB/c nude mice
Method: Ba/F3 KIF5B-RET cells were removed from the cell bank, resuscitated and added to RPMI1640 medium (RPMI1640+10% FBS+1% Glu+1% P/S), then cultured in a CO2 incubator (incubator temperature was 37° C., CO2 concentration was 5%), and when the cell number expanded to the required number for in vivo inoculation, Ba/F3 KIF5B-RET cells were collected. The cells were counted with an automatic cell counter, resuspended with PBS according to the count results, made into a cell suspension (density was 2×10^7/mL), and placed in an ice box for use.
Female BALB/c nude mice aged 6-8 weeks were used, weighing about 18-22 g. Mice were reared in SPF animal room, and were reared in a single cage with 5 mice in each cage. All cages, bedding and water were sterilized at high temperature before use, and all animals were allowed to eat and drink freely. Nude mice were labeled with disposable universal ear tags for mice and rats before the start of the experiment, and the skin of the inoculation site was disinfected with 75% medical alcohol before inoculation. 0.1 mL (containing 2*10^6 cells) of Ba/F3 KIF5B-RET cells were inoculated subcutaneously on the right back of each mouse. Group administration was initiated when the tumor volume reached 60-200 mm^3, with 5 mice in each group. Each test compound was administered orally twice a day for 14 days. The tumor volume and the weight of mice were measured twice a week, and the tumor TGI (%) was calculated.
The tumor volume (mm^3) was calculated as V=0.5*D*d*d, where D and d were the long and short diameters of the tumor, respectively.
When there was no tumor regression, TGI (%)=[(1-(mean tumor volume at the end of the administration in a treatment group−mean tumor volume at the start of administration in the treatment group))/(mean tumor volume at the end of treatment in the solvent control group−mean tumor volume at the start of treatment in the solvent control group)]×100%.
When there was tumor regression, TGI (%)=[1-(mean tumor volume at the end of administration in a treatment group−mean tumor volume at the beginning of administration in the treatment group)/mean tumor volume at the beginning of administration in the treatment group]×100%.

[3] = tested on: TT cells (MTC, RET C634W); assay: Inhibition of proliferation of TT cells (CellTiter-Glo, 72 h); type: cell-based; conditions: Homo sapiens
In short: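 TT cells seeded overnight, then exposed to compound dilutions for 72 h at 37 °C, 5% CO2, with a solvent control. Viability read by CellTiter-Glo luminescence; IC50 from nonlinear regression of inhibition rate versus concentration.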

Ba/F3 KIF5B-RET cells = target: T3, Ba/F3 KIF5B-RET cells (Homo sapiens, UniProt P07949); assay: Inhibition of proliferation of Ba/F3 KIF5B-RET cells (CellTiter-Glo); type: cell-based; conditions: 72 to 144 hours
T3 construct: fused on or other part: P33176 (Kinesin-1 heavy chain)
In short: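 Cells plated overnight, then exposed to compound dilutions in DMSO/medium at 37° C, 5% CO2 for 72 to 144 hours. Viability read by CellTiter-Glo luminescence; IC50 from inhibition rates fitted by nonlinear regression.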

RET M918T = target: T4, RET M918T (Homo sapiens, UniProt P07949, M918T); assay: HTRF kinase activity inhibition, RET M918T; type: biochemical; conditions: ATP at Km
T4 construct: purchased Carna 08-508
Description: 2.2 Experimental Reagents: • RET enzyme was purchased from Carna Company, and the article number was 08-159; • RET M918T enzyme was purchased from Carna Company, and the article number was 08-508; • KIF5B-RET was purchased from SignalChem Company, the article number was R02-19FG-05; • CCDC6-RET was purchased from SignalChem Company, the article number was R02-19BG-05; • RET V804M enzyme was purchased from Thermofisher Company, and the article number was PV6223; • RET V804L enzyme was purchased from Thermofisher Company, and the article number was PV4397; • HTRF KinEASE-TK kit was purchased from Cisbio Company, and the article number was 62TK0PEC; • ATP was purchased from Thermofisher Company, and the article number was PV3227; • 384-well plate was purchased from PerkinElmer Company, and the article number was 6007290.
In this experiment, a homogeneous time-resolved fluorescence (HTRF) method was used for the detection of compounds on RET kinase activity.

T1 sequence (P07949 29-1114): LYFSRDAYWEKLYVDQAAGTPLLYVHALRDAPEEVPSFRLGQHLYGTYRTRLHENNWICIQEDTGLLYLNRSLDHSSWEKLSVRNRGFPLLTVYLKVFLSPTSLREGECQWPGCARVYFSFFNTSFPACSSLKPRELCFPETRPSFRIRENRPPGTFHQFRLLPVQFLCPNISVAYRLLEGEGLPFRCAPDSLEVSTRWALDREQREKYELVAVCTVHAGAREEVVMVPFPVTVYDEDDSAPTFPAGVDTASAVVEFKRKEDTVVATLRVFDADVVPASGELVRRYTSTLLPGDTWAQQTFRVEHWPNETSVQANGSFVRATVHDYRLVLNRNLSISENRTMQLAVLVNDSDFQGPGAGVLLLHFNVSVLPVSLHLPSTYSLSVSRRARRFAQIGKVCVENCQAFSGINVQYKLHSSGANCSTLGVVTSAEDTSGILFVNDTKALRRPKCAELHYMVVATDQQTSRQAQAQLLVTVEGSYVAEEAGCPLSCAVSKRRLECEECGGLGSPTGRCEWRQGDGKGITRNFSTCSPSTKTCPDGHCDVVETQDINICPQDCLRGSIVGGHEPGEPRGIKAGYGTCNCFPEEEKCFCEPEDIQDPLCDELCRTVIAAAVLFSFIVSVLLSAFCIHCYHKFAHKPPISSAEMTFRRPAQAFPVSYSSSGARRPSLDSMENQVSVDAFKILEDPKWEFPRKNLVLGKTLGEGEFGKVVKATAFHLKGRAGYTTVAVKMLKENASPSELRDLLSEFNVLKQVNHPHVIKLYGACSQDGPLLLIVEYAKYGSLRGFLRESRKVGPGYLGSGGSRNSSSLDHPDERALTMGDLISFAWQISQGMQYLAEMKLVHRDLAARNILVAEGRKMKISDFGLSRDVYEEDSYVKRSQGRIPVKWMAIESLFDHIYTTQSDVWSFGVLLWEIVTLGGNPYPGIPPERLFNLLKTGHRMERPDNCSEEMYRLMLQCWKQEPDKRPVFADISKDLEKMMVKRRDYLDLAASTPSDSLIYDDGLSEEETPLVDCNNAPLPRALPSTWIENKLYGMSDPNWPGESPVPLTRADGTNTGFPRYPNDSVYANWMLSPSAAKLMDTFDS
T2 sequence (P35968 20-1356): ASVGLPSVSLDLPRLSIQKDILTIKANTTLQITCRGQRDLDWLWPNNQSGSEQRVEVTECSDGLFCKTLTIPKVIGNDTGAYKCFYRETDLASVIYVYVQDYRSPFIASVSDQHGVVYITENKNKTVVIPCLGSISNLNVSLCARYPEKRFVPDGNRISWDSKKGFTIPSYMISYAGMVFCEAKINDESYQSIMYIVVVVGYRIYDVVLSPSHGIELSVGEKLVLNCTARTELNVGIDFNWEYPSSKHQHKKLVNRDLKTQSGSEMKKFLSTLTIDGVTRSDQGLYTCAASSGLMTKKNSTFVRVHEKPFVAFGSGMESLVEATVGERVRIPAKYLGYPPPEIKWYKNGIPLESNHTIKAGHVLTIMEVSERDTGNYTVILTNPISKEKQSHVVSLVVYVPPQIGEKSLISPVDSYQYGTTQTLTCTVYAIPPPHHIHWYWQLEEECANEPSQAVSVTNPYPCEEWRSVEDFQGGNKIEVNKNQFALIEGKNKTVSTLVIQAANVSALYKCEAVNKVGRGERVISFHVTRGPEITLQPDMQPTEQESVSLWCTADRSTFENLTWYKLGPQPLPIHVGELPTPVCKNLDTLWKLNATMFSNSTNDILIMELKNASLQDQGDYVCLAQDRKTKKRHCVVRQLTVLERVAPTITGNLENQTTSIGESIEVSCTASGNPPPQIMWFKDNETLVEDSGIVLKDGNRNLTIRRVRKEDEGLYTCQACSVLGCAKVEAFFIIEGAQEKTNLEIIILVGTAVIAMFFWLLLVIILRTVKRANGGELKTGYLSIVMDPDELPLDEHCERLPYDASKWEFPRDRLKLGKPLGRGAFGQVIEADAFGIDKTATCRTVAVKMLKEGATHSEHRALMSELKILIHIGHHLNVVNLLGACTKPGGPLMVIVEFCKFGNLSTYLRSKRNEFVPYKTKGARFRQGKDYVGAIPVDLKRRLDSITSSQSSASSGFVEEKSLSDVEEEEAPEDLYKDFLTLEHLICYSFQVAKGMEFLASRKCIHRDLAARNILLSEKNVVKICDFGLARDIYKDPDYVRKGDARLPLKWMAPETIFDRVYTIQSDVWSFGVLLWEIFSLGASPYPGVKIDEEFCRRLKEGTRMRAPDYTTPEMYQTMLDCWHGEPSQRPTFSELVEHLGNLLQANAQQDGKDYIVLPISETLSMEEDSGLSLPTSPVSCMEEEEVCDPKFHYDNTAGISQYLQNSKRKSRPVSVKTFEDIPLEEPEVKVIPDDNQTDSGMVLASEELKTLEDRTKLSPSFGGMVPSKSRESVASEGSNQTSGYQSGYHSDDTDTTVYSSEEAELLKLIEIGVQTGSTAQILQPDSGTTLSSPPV
T3 sequence (P07949 whole entry, change not shown, the tested form may be a part): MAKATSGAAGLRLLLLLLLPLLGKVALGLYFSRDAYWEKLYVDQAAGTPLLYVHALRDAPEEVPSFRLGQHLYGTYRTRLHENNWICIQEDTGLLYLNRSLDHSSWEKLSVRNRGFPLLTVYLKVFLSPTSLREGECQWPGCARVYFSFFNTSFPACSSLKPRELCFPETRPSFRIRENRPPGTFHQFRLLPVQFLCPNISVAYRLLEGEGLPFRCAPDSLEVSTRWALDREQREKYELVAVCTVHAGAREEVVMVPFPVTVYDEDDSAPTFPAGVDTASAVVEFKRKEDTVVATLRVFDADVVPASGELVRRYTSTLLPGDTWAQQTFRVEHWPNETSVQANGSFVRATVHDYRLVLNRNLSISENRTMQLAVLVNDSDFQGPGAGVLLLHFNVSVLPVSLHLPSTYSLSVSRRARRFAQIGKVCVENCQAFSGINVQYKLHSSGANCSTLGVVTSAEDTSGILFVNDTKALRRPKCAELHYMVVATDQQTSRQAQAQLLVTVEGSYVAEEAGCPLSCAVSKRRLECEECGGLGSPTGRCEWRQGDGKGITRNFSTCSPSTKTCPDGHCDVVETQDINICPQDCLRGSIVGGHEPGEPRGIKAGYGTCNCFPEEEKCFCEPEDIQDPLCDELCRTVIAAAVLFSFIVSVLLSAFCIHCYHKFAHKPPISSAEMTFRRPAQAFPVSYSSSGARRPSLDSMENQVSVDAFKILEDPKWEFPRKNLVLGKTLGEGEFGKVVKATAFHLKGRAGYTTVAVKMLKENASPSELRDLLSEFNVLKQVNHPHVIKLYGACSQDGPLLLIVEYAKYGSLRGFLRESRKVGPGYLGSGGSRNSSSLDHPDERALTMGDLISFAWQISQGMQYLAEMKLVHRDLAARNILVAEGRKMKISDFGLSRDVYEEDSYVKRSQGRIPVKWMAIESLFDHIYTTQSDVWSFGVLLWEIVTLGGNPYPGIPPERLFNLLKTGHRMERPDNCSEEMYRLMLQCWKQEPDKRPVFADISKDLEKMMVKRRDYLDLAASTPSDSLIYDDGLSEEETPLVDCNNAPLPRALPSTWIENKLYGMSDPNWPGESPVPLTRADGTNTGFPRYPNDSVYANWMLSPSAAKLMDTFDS
T4 sequence (P07949 29-1114 M918T): as the sequence (P07949 29-1114) above, with M890T counted along it

| SMILES | pIC50 (RET kinase) | pIC50 (KDR kinase) | Ratio (KDR/RET) (KDR kinase) | MRT [1] | Cmax [1] | AUC(0-t) [1] | AUC(0-inf) [1] | half-life [1] | Tmax [1] | Tumor volume (Mean ± SD) Day 0 ([2]; 10 mg/kg oral twice a day) | TGI (%) Day 14 ([2]; 10 mg/kg oral twice a day) | Tumor volume (Mean ± SD) Day 14 ([2]; 10 mg/kg oral twice a day) | pIC50 [3] | pIC50 (Ba/F3 KIF5B-RET cells) | pIC50 (RET M918T) | Tumor volume (Mean ± SD) Day 0 ([2]; 30 mg/kg oral twice a day) | TGI (%) Day 14 ([2]; 30 mg/kg oral twice a day) | Tumor volume (Mean ± SD) Day 14 ([2]; 30 mg/kg oral twice a day) |
| --- | --- | --- | --- | --- | --- | --- | --- | --- | --- | --- | --- | --- | --- | --- | --- | --- | --- | --- |
| C#CC(C)(O)COc1cc(-c2ccc(N3CC4CC(C3)N4Cc3ccc(OC)nc3)nc2)c2c(C#N)cnn2c1 (stereo not shown) [Embodiment 62, 6-((2-Hydroxy-2-methylbut-3-yn-1-yl)oxy)-4-(6-(6-((6-methoxypyridin-3-yl)methyl)-3,6-diazabicyclo[3.1.1]heptan-3-yl)pyridin-3-yl)pyrazolo[1,5-a]pyridine-3-carbonitrile] | 9.32 | 7.45 | 73 | 4.07 h | 2820 ng/mL | 13800 ng·h/mL | 13800 ng·h/mL | 2.4 h | 0.5 h | 100.24 ± 27.85 mm^3 | 89.74% | 247.52 ± 85.65 mm^3 | – | – | – | – | – | – |
| C#C[C@](C)(O)COc1cc(-c2ccc(N3CC4CC(C3)N4Cc3cnc(OC)c(F)c3)nc2)c2c(C#N)cnn2c1 [Embodiment 65, 4-(6-(6-((5-Fluoro-6-methoxypyridin-3-yl)methyl)-3,6-diazabicyclo[3.1.1]heptan-3-yl)pyridin-3-yl)-6-(((S)-2-hydroxy-2-methylbut-3-yn-1-yl)oxy)pyrazolo[1,5-a]pyridine-3-carbonitrile] | 9.48 | 7.84 | 44 | 5.24 h | 2400 ng/mL | 20200 ng·h/mL | 20300 ng·h/mL | 3.05 h | 2 h | 100.40 ± 29.77 mm^3 | 87.71% | 276.69 ± 106.21 mm^3 | 7.90 | 8.15 | – | – | – | – |
| CC(C)(O)C#Cc1cc(-c2ccc(N3CCC(C)(NC(=O)c4ncccc4Cl)CC3)nc2)c2c(C#N)cnn2c1 [Embodiment 85, 3-Chloro-N-(1-(5-(3-cyano-6-(3-hydroxy-3-methylbut-1-yn-1-yl)pyrazolo[1,5-a]pyridin-4-yl)pyridin-2-yl)-4-methylpiperidin-4-yl)picolinamide] | 9.42 | 7.34 | 122 | – | – | – | – | – | – | – | – | – | 8.03 | – | 9.10 | – | – | – |
| COc1ncc(CN2C3CC2CN(c2ccc(-c4cc(N5CC(C(C)(C)O)C5)cn5ncc(C#N)c45)cn2)C3)cc1F [Embodiment 31, 4-(6-(6-((5-Fluoro-6-methoxypyridin-3-yl)methyl)-3,6-diazabicyclo[3.1.1]heptan-3-yl)pyridin-3-yl)-6-(3-(2-hydroxypropan-2-yl)azetidin-1-yl)pyrazolo[1,5-a]pyridine-3-carbonitrile] | 9.12 | 7.64 | 30 | 4.71 h | 3120 ng/mL | 18900 ng·h/mL | 18900 ng·h/mL | 2.66 h | 0.5 h | – | – | – | 8.18 | – | 9.33 | – | – | – |
| COc1ccc(CN2C3CC2CN(c2ccc(-c4cc(C#CC(C)(C)N)cn5ncc(C#N)c45)cn2)C3)cn1 [Embodiment 17, 6-(3-Amino-3-methylbut-1-yn-1-yl)-4-(6-(6-((6-methoxypyridin-3-yl)methyl)-3,6-diazabicyclo[3.1.1]heptan-3-yl)pyridin-3-yl)pyrazolo[1,5-a]pyridine-3-carbonitrile] | 9.41 | 8.09 | 21 | – | – | – | – | – | – | – | – | – | 7.88 | – | 9.42 | – | – | – |
| CC1(NC(=O)c2ncccc2Cl)CCN(c2ccc(-c3cc(OCC4(C#N)CC4)cn4ncc(C#N)c34)cn2)CC1 [Embodiment 92, 3-Chloro-N-(1-(5-(3-cyano-6-((1-cyanocyclopropyl)methoxy)pyrazolo[1,5-a]pyridin-4-yl)pyridin-2-yl)-4-methylpiperidin-4-yl)picolinamide] | 9.07 | 6.73 | 218 | 2.85 h | 9340 ng/mL | 24500 ng·h/mL | 24500 ng·h/mL | 1.7 h | 0.5 h | – | – | – | 7.56 | 7.49 | – | 133.41 ± 18.82 mm^3 | 126.35% | 98.26 ± 33.71 mm^3 |
| COc1ccc(CN2C3CC2CN(c2ccc(-c4cc(N5CC(C(C)(C)O)C5)cn5ncc(C#N)c45)cn2)C3)cn1 [Embodiment 7, 6-(3-(2-Hydroxypropan-2-yl)azetidin-1-yl)-4-(6-(6-((6-methoxypyridin-3-yl)methyl)-3,6-diazabicyclo[3.1.1]heptan-3-yl)pyridin-3-yl)pyrazolo[1,5-a]pyridine-3-carbonitrile] | 9.16 | 7.96 | 16 | 3.76 h | 3280 ng/mL | 13800 ng·h/mL | 13800 ng·h/mL | 2.18 h | 0.5 h | 100.80 ± 31.28 mm^3 | 90.82% | 232.46 ± 133.65 mm^3 | 7.96 | 7.89 | 8.97 | – | – | – |
| COc1ccc(CN2C3CC2CN(c2ccc(-c4cc(C#CC(C)(C)O)cn5ncc(C#N)c45)cn2)C3)cn1 [Embodiment 8, 6-(3-Hydroxy-3-methylbut-1-yn-1-yl)-4-(6-(6-((6-methoxypyridin-3-yl)methyl)-3,6-diazabicyclo[3.1.1]heptan-3-yl)pyridin-3-yl)pyrazolo[1,5-a]pyridine-3-carbonitrile] | 9.32 | 7.80 | 34 | 4.91 h | 3710 ng/mL | 21400 ng·h/mL | 21500 ng·h/mL | 3.37 h | 0.5 h | – | – | – | 7.77 | 7.92 | 9.17 | – | – | – |
